Measurements: US7491501B2, “Methods for identifying modulators of intracellular aggregate formation” (Auburn University, priority 2003, dated 2009)
Where a SMILES comes first, the peptide text is derived from it. [ ]: non-standard residue; d: D form. The star is where a group is joined. Nle = CCCC[C@H](N)C(=O)O; Cbz = O=C(OCc1ccccc1)*

Key:
ubiquitinated tau = test: Accumulation of ubiquitinated tau in tau-transfected HEK cells treated with degradation inhibitors; format: cell-based, Human; details: 50 μM ALLN, 5 μM MG132 or 0.15 mM chloroquine, 24 h
Text: Depletion of p62 levels by transfection of antisense (AS) p62 retarded the turnover of p62 (FIG. 12A). […] Collectively these findings reveal that tau turnover is regulated by both the expression of p62 and the presence of K63 polyubiquitin chains carried by tau. The best known function of protein ubiquitination is to target proteins for degradation by the 26S proteasome. However, K63 chains have been hypothesized to play a role aside of targeting proteins to the proteasome. To test whether K63 chains are able to signal proteasomal degradation, tau was first ubiquitinylated in an in vitro reaction with K63 ubiquitin. The protein complex containing polyubiquitinated tau on beads was then incubated with 26S proteasome supplemented with MgCl2 and ATP. The polyubiquitinated chains disappeared after incubation with purified 26S proteasome (FIG. 12B). To determine whether the observed disappearance of polyubiquitinated products is due to degradation or to the deubiquitinating activity in the 26S proteasome fraction, a deubiquitination inhibitor, Ub-H was added to the reaction. […] To test if ubiquitinated tau was targeted to the proteasome, HEK cells cotransfected with His-tau were treated with ALLN, MG132 or chloroquine. Both ALLN and MG132 block proteasome degradation, whereas chloroquine blocks degradation through the lysosome. It was observed that ubiquitinated tau accumulates in the presence of proteasome inhibitors, but not chloroquine, thus confirming that polyubiquitinated tau is degraded by the proteasome (FIG. 12C).

PC12 cells = test: Cell survival assay (MTS) in NGF-treated PC12 cells (Table 4); format: cell-based; details: PC12, NGF 50 ng/ml, MG132 25 μM, Aβ peptides 10 μM, 24 h, 100% without agent
Experimental: Cell Survival Assay—PC 2 cells were treated with 50 ng/ml NGF 24 h prior to addition of TRAF6 control or inhibitor peptide (75 μM). After 5 h, the cells were treated for an additional 24 h with or without MG132 (25 μM), Aβ peptide 42-1 or 1-42 (10 μM). Cell survival was measured by MTS assay.
All cells were treated with NGF (50 ng/ml), followed by addition of control or inhibitory TRAF6 peptide +/−Aβ peptide. Survival was measured by MTS assay.

[1] = test system: tau aggregates in PC12 cells; test: Tau aggregate formation in NGF-treated PC12 cells (Table 3); format: cell-based; details: PC12, NGF 50 ng/ml; MG132 25 μM, Aβ peptides 10 μM; 6% without agent
Experimental: PC12 cells were treated with NGF to induce tau polyubiquitination and treated or not with MG132 or Aβ and Aβ1-42, Aβ42-1. […] The relationship between aggregate formation and cell death was assessed (Tables, 3 & 4). Tau aggregate formation was observed upon treatment with MG1 32 or Aβ1-42 peptide. […] Furthermore, aggregate formation correlated with enhanced […] (Table 4).
All cells were treated with NGF (50 ng/ml), followed by addition of control or inhibitory TRAF6 peptide +/−Aβ peptide. Cells were stained for tau and 300 cells from two independent experiments were scored for the presence of tau aggregates or not.

[2] = test system: p62 aggregates in HEK cells; test: p62 aggregate formation by confocal/fluorescence microscopy in transfected HEK cells; format: cell-based, Human; details: for large p62 aggregates upon inhibition of proteasomal degradation: MG132 data not shown; for size of aggregates of cotransfected p62, ubiquitin, TRAF6, tau, UbcH7: cotransfected cells (FIG. 9C), MG132 not shown; for formation of the p62 aggregates (microtubule dependence): data not shown
Experimental: Immunofluorescence staining—All steps were done at room temperature unless stated otherwise. The inclusion bodies were placed on poly-L-lysine coated 12 well slides (Cel-line/Erie Scientific Co., Portmouth, N.H.) and let partially dry. Inclusion bodies on the slides were fixed for 10 min in 3% paraformaldehyde (Electron Microscopy Sciences, Fort Washington, Pa.) and permeabilized with 0.1% Triton X-100 in PBS for 15 minutes. The inclusion bodies were incubated in blocking buffer (3% non fat dry milk in PBS) for 1 h, prior to incubation with primary antibodies at 4° C. overnight. After washing with PBS, the secondary antibody (Molecular Probes Inc., Eugene, Oreg.) in blocking buffer was applied for 1 h. After extensive washing in PBS, the samples were mounted using Vectashield (Vector Laboratories Inc., Burlingame, Calif.). The cells were fixed with 3% paraformaldehyde and processed similar to that of inclusion staining.
Cells were incubated with rabbit anti-myc IgG or mouse anti-HA IgG and labeled with Texas Red-conjugated anti-rabbit antibodies (red) or Oregon Green-conjugated anti-mouse antibodies (green), respectively. Merged images with overlapping immunoreactivity are shown in yellow. Note that cells expressing p62 lacking its UBA domain (p62ΔUBA) fail to form aggregates or to colocalize with ubiquitin. All experiments were replicated three independent times with similar results. Small aggregates of p62 colocalized with ubiquitin which was dependant upon the presence of a UBA domain but not the N-terminal portion of p62. Aggregation may impair the proteasome or, alternatively, impaired proteasome activity may seed aggregates. Alternatively, impairment of the proteasome may enhance the formation of p62 aggregates containing polyubiquitin.
In summary, through its UBA domain, p62 Interacts with polyubiquitinated substrates, and the UBA domain is necessary for aggregate formation.
Since TRAF6 localized to the large aggregates along with polyubiquitin (FIG. 2B), these aggregates may represent the failed attempt of the cell to rid itself of TRAF6-K63-polyubiquitinated substrates sequestered through interaction with the UBA domain. […] Altogether, these findings reveal that p62 binds proteins with K63 chains through its UBA domain and that p62 aggregates sequester TRAF6 as well as K63-polyubiquitinated substrates.
To further determine if the coassociation of tau-p62-TRAF6 and UbcH7 could be recapitulated in vitro, a cotransfection approach was undertaken. […] HEK cells were transfected with GFP-p62 followed by treatment or not with Aβ1-42 and Aβ42-1 peptides. […] This is consistent with the observation that microtubule dependent transport is important for the formation of p62 inclusions as assessed by treatment of the cells with nocodazole, a microtubule disrupting agent (9).

[3] = test system: internalization of NGF by PC12 cells; test: Internalization of NGF, 125I-NGF binding assay in PC12 cells (FIG. 15D); format: cell-based; details: PC12 cells pretreated with peptide (150 μM); control not shown
Experimental: Additionally, PC12 cells were pretreated or not with TRAF6 peptide (150 μM) followed by measurement of internalized receptor employing 125I-NGF binding assay (FIG. 15D). […] Similarly, the level of internalized NGF was measured in PC12 cells transfected with wild-type ubiquitin, K48R or K63R ubiquitin mutants (FIG. 15E). Transfection of ubiquitin, or K48R mutant was without any effect on internalization of NGF. By comparison, transfection of K63R ubiquitin mutant totally abrogated internalization of the ligand. […] Thus, p62 serves as an adaptor, as well as, a scaffold for TRAF6-directed ubiquitination and K63 chains play a signaling role for internalization and sorting of the receptor.

TrkA = test: NGF-dependent TrkA ubiquitination and TrkA complex formation in PC12 cells (FIG. 15B, 15C); format: cell-based; details: NGF treated, TrkA immunoprecipitation
Experimental: (§1) The peptide containing the TRAF6-binding motif in p62 along with the hydrophobic sequence containing the cell-permeable motif from Kaposi fibroblast growth factor signal sequence […]-[…] (SEQ ID NO. 4) and control peptide […]-[…] (SEQ ID NO. 5) was synthesized. As a preliminary step, PC12 cells were pretreated with different concentrations (75-300 μM) of TRAF6 peptide for 5 hours followed by NGF stimulation for 15 min and immunoprecipitation of TRAF6 followed by Western blotting for p62. […] To address whether TRAF6 peptide affects the interaction of p62 and UbcH7 with TRAF6, PC12 cells were treated with or without 150 μM of control peptide or TRAF6 peptide for 5 hours and then stimulated with NGF for 15 min. By immunoprecipitating TRAF6, TRAF6 peptide (150 μM) abrogated the interaction of p62 with TRAF6, but not UbcH7, upon NGF treatment (FIG. 8A). […] The ability of the TRAF6 peptide to impair the ubiquitination process was investigated. Lysates recovered from NGF treated cells were immunoprecipitated with TrkA receptor antibody and blotted for ubiquitin or the receptor (FIG. 15B). […] The ability of the peptide to interrupt the formation of the functional TrkA-p62-TRAF6-UbcH7 complex on NGF stimulation as well was also investigated. TrkA was immunoprecipitated and blotted for the presence of each protein in the complex (FIG. 15C).

tau polyubiquitination = test: NGF-induced tau polyubiquitination in PC12 cells (FIG. 13A); format: cell-based; details: control not shown
Experimental: (§2) The region spanning amino acids 225-251 is necessary for the interaction of p62 with TRAF6. The peptide containing TRAF6 binding motif in p62 along with the hydrophobic sequence containing the cell-permeable motif from Kaposi fibroblast growth factor sequence, […]-[…] (SEQ ID NO. 4) and control peptide […]-[…] (SEQ ID NO. 5) was synthesized. As a preliminary step, PC12 cells were pretreated with various concentrations of peptide for 5 h, followed by NGF stimulation for 15 min and immunoprecipitation with TRAF6 and western blotted with p62. […] The peptide was then tested for its ability to block NGF-induced tau polyubiquitination (FIG. 13A).

[4] = biological target: T1, interaction of p62 with TRAF6 (Rattus norvegicus, UniProt B5DF45); test: TRAF6 immunoprecipitation and Western blot for p62/UbcH7 in NGF-stimulated PC12 cells; format: cell-based; details: 150 μM peptide 5 hours, NGF 15 min
T1 construct: followed by NGF stimulation for 15 min and immunoprecipitation of TRAF6 followed by Western blotting for p62; endogenous in cells; host or cells: PC12
Experimental: Immunoprecipitation and Western blotting—Each mg of lysate/inclusion bodies was incubated with 41 ng of primary antibody at 4° C. for 3 h and then with 50 μl of 50% agarose-coupled secondary antibody for 2 more hours at 4 C. The beads were washed three times with lysis buffer, eluted by adding SDS-PAGE sample buffer, and subjected to SDS-PAGE in 7.5-12% acrylamide gels. Immunoblotting was performed on nitrocellulose membranes and analyzed by western blotting with ECL detection reagents (Amersham Biosciences).
as §2, §1

HEK cells = test: Cell survival by MTS reagent in p62-transfected HEK cells (FIG. 1D); format: cell-based, Human; details: ALLN (50 μM) 30 h
Experimental: In FIG. 1D HEK cells (in a 24-well plate) were transfected with myc-tagged wild-type p62, p62ΔUBA, or p62ΔN-term along with HA-tagged ubiquitin constructs. After 24 h of transfection, the cells were treated with or without ALLN (50 μM) for 30 h. Cell survival was assessed by the addition of MTS reagent for 2 h. Values plotted in FIG. 1D are means±standard error of the means of four different experiments.

GFP-p62-expressing cells = test: Live/Dead Viability/Cytotoxicity assay of cells with or without p62 aggregates; format: cell-based; details: With ALLN; cells scored by GFP-p62 expression
Experimental: Cell Death Assay—Live and dead cells were identified with LIVE/DEAD Viability/Cytotoxicity Kit (Molecular Probes, Eugene, Oreg.) according to the manufacturer's instruction.
The role of aggregates and their relationship to cell survival are controversial. […] Viability of cells with p62 aggregates employing the Live/Dead Viability/Cytotoxicity assay was determined (Table 1).

T1 sequence (B5DF45 whole entry): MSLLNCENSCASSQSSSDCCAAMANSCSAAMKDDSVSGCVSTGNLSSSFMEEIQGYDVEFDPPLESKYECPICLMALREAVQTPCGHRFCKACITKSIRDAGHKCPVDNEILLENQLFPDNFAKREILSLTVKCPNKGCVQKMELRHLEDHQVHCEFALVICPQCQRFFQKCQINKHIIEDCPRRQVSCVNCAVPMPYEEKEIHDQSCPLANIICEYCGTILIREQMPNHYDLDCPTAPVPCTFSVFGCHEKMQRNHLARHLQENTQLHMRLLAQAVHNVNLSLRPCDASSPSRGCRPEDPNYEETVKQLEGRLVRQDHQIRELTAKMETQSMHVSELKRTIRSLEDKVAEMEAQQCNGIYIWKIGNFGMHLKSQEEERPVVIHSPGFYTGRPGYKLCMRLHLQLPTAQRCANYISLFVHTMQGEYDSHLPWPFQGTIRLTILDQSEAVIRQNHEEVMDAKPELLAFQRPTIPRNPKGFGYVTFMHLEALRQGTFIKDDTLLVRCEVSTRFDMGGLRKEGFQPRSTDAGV
T1 sequence (D3Z8W5 1-154 partner): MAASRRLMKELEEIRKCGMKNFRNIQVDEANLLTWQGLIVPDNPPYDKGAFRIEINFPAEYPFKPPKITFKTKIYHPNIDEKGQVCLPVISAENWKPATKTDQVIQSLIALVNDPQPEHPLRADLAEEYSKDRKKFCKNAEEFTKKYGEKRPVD

In the case of CCN(CC)CCCC(C)Nc1ccnc2cc(Cl)ccc12 (centres unmarked) [chloroquine], the “accumulation of ubiquitinated tau” value (ubiquitinated tau) was “not”.
For CC(C)C[C@@H](C=O)NC(=O)[C@H](CC(C)C)NC(=O)[C@H](CC(C)C)NC(=O)OCc1ccccc1 [MG132, Z-Leu-Leu-Leu-CHO] (Cbz-Leu-Leu-Leu-aldehyde), the “accumulation of ubiquitinated tau” value (ubiquitinated tau) was “accumulates”, the “cell survival, agent alone (Control, no TRAF6 peptide)” value (PC12 cells) was 44.3% and the “cells with tau aggregates, agent alone (Control, no TRAF6 peptide)” value [1] was 82%. For the same molecule, the “large p62 aggregates upon inhibition of proteasomal degradation” value ([2]; HEK cells) was “large aggregates of p62 which contained sequestered polyubiquitin were visible” and the “size of aggregates of cotransfected p62, ubiquitin, TRAF6, tau, UbcH7” value [2] was “increased in size”.
With COC(=O)Nc1nc2ccc(C(=O)c3cccs3)cc2[nH]1 [nocodazole] the “formation of the p62 aggregates (microtubule dependence)” value [2] was “prevented their formation”.
CC[C@]1(O)C[C@@H]2CN(CCc3c([nH]c4ccccc34)[C@@](C(=O)OC)(c3cc4c(cc3OC)N(C)[C@H]3[C@@](O)(C(=O)OC)[C@H](OC(C)=O)[C@]5(CC)C=CCN6CC[C@]43[C@@H]65)C2)C1 [vinblastine] was tested, and the “formation of the p62 aggregates (microtubule dependence)” value [2] was “prevented their formation”.
In the case of “AAVALLPAVLLALLAP-ESASGASADASVNFLK [control peptide]”, the “internalization of NGF” value [3] was “not”, the “NGF-dependent ubiquitination of TrkA” value (TrkA) was “no effect” and the NGF-induced tau polyubiquitination (tau polyubiquitination) was “not”. The “interaction of p62 with TRAF6” value [4] was “without effect”.
For Aβ1-42: neurotoxic amyloid beta peptide, the “cell survival, agent alone (Control, no TRAF6 peptide)” value (PC12 cells) was 45.7%, the “cells with tau aggregates, agent alone (Control, no TRAF6 peptide)” value [1] was 72% and the “formation of p62 aggregates by Aβ peptide” value ([2]; HEK cells transfected with GFP-p62 (FIG. 9D)) was “induced formation of p62 aggregates”.
With CCCC[C@@H](C=O)NC(=O)[C@H](CC(C)C)NC(=O)[C@H](CC(C)C)NC(C)=O [ALLN, N-acetyl-Leu-Leu-Norleu-AL] (Ac-Leu-Leu-[Nle]-aldehyde) the “accumulation of ubiquitinated tau” value (ubiquitinated tau) was “accumulates”, the “cell survival-promoting effects of p62” value (HEK cells) was “completely inhibited” and the “% of cells, With aggregates, Alive” value (GFP-p62-expressing cells) was 48%. The “% of cells, With aggregates, Dead” value (GFP-p62-expressing cells) was 52%, the “% of cells, Without aggregates, Alive” value (GFP-p62-expressing cells) was 38% and the “% of cells, Without aggregates, Dead” value (GFP-p62-expressing cells) was 62%. For the same molecule, the “size of the aggregates” value ([2]; HEK cells, ALLN (50 μM) 24 h, 6 to 8 microns without ALLN) was 12 to 14 microns, the “GFP-p62-expressing cells accumulating large p62 aggregates” value ([2]; HEK cells, ALLN treatment) was 100% and the “average number of aggregates per cell” value ([2]; HEK cells, with versus without ALLN) was “essentially similar”. For the same molecule, the “large p62 aggregates upon inhibition of proteasomal degradation” value ([2]; HEK cells) was “large aggregates of p62 which contained sequestered polyubiquitin were visible” and the “size of aggregates of cotransfected p62, ubiquitin, TRAF6, tau, UbcH7” value [2] was “increased in size”.
